Assay: xn = mol fraction of the nth substance listed
Conditions: 101 kPa, Liquid; for speed of sound: Frequency=3 MHz, Sing-around technique in a fixed-path interferometer; for mass density: Vibrating tube method

O=C1CCCN1 [2-pyrrolidinone] + CC#N
Conditions	mass density [kg/m3]	speed of sound [m/s]
298.15 K, x1 = 0.1025	827.196	1311.2
298.15 K, x1 = 0.1865	864.997	1337
298.15 K, x1 = 0.3069	913.434	1380.2
298.15 K, x1 = 0.3976	946.686	1414.4
298.15 K, x1 = 0.4974	979.551	1451.9
298.15 K, x1 = 0.605	1012.17	1492.9
298.15 K, x1 = 0.695	1036.85	1526.1
298.15 K, x1 = 0.7932	1061.58	1561.6
298.15 K, x1 = 0.8972	1085.63	1598.1
303.15 K, x1 = 0.1025	821.985	–
303.15 K, x1 = 0.1865	859.946	1317.8
303.15 K, x1 = 0.3069	908.581	1362.3
303.15 K, x1 = 0.3976	941.969	1396.8
303.15 K, x1 = 0.4974	974.979	1434.8
303.15 K, x1 = 0.605	1007.72	1476
303.15 K, x1 = 0.695	1032.51	1509.5
303.15 K, x1 = 0.7932	1057.33	1545.2
303.15 K, x1 = 0.8972	1081.46	1582.1
308.15 K, x1 = 0.1025	816.754	–
308.15 K, x1 = 0.1865	854.873	1298.8
308.15 K, x1 = 0.3069	903.718	1344.4
308.15 K, x1 = 0.3976	937.251	1379.3
308.15 K, x1 = 0.4974	970.394	1417.7
308.15 K, x1 = 0.695	1028.15	1492.4
308.15 K, x1 = 0.8972	1077.29	1565.9
308.16 K, x1 = 0.605	1003.27	1459.2
308.16 K, x1 = 0.7932	1053.07	1528.7
313.15 K, x1 = 0.1025	811.493	–
313.15 K, x1 = 0.1865	849.779	1280.1
313.15 K, x1 = 0.3069	898.84	1326.7
313.15 K, x1 = 0.605	998.811	1442.4
313.15 K, x1 = 0.7932	1048.82	1512.3
313.15 K, x1 = 0.8972	1073.12	1549.8
313.16 K, x1 = 0.3976	932.515	1361.9
313.16 K, x1 = 0.4974	965.8	1400.7
313.16 K, x1 = 0.695	1023.8	1475.5
318.15 K, x1 = 0.1025	806.204	–
318.15 K, x1 = 0.1865	844.673	1261.4
318.15 K, x1 = 0.3976	927.77	1344.6
318.15 K, x1 = 0.605	994.35	1425.7
318.15 K, x1 = 0.695	1019.44	1458.7
318.15 K, x1 = 0.7932	1044.56	1496.1
318.15 K, x1 = 0.8972	1068.96	1533.8
318.16 K, x1 = 0.3069	893.944	1308.8
318.16 K, x1 = 0.4974	961.2	1383.7
323.15 K, x1 = 0.8972	1064.8	1517.9
323.16 K, x1 = 0.1025	800.887	–
323.16 K, x1 = 0.1865	839.54	1242.8
323.16 K, x1 = 0.3069	889.032	1290.5
323.16 K, x1 = 0.3976	923.008	1327.3
323.16 K, x1 = 0.4974	956.587	1366.8
323.16 K, x1 = 0.605	989.88	1408.9
323.16 K, x1 = 0.695	1015.08	1441.8
323.16 K, x1 = 0.7932	1040.3	1479.9

CN1CCCC1=O [N-methylpyrrolidone] + CC#N
Conditions	mass density [kg/m3]	speed of sound [m/s]
293.15 K, x1 = 0.0997	826.597	–
293.15 K, x1 = 0.2019	865.011	–
293.15 K, x1 = 0.2953	895.168	–
293.15 K, x1 = 0.4033	925.343	–
293.15 K, x1 = 0.4999	948.634	–
293.15 K, x1 = 0.5645	962.588	–
293.15 K, x1 = 0.6971	987.869	–
293.15 K, x1 = 0.7909	1002.68	–
293.15 K, x1 = 0.8906	1018.29	–
293.15 K, x1 = 1	1032.25	–
298.15 K, x1 = 0.0997	821.365	1311.6
298.15 K, x1 = 0.2019	859.919	1345.4
298.15 K, x1 = 0.2953	890.188	1375
298.15 K, x1 = 0.4033	920.48	1407.6
298.15 K, x1 = 0.4999	943.847	1434.4
298.15 K, x1 = 0.5645	957.857	1450.8
298.15 K, x1 = 0.6971	983.231	1483.7
298.15 K, x1 = 0.7909	998.089	1503.3
298.15 K, x1 = 0.8906	1013.76	1524.8
298.15 K, x1 = 1	1027.79	1544.6
303.15 K, x1 = 0.0997	816.101	1291.8
303.15 K, x1 = 0.2019	854.802	1325.7
303.15 K, x1 = 0.2953	885.193	1355.4
303.15 K, x1 = 0.4033	915.6	1387.9
303.15 K, x1 = 0.4999	939.067	1414.8
303.15 K, x1 = 0.5645	953.126	1430.7
303.15 K, x1 = 0.6971	978.597	1463.6
303.15 K, x1 = 0.7909	993.514	1483.2
303.15 K, x1 = 0.8906	1009.25	1505.1
303.15 K, x1 = 1	1023.33	1525.3
308.15 K, x1 = 0.0997	810.812	1272
308.15 K, x1 = 0.2019	849.665	1306
308.15 K, x1 = 0.2953	880.18	1335.8
308.15 K, x1 = 0.4033	910.709	1367.7
308.15 K, x1 = 0.4999	934.271	1394.8
308.15 K, x1 = 0.5645	948.386	1410.4
308.15 K, x1 = 0.6971	973.957	1443.4
308.15 K, x1 = 0.7909	988.935	1462.8
308.15 K, x1 = 0.8906	1004.73	1485.2
308.15 K, x1 = 1	1018.87	1506
313.15 K, x1 = 0.0997	805.495	1252.2
313.15 K, x1 = 0.2019	844.503	1286.4
313.15 K, x1 = 0.2953	875.146	1316.3
313.15 K, x1 = 0.4033	905.801	1347.6
313.15 K, x1 = 0.4999	929.461	1374.7
313.15 K, x1 = 0.5645	943.637	1390.2
313.15 K, x1 = 0.6971	969.311	1423.3
313.15 K, x1 = 0.7909	984.35	1442.6
313.15 K, x1 = 0.8906	1000.21	1465.5
313.15 K, x1 = 1	1014.41	1486.8
318.15 K, x1 = 0.0997	800.149	1232.4
318.15 K, x1 = 0.2019	839.318	1266.8
318.15 K, x1 = 0.2953	870.091	1296.9
318.15 K, x1 = 0.4999	924.64	1354.8
318.15 K, x1 = 0.7909	979.759	1422.4
318.15 K, x1 = 0.8906	995.681	1445.9
318.15 K, x1 = 1	1009.95	1467.8
318.16 K, x1 = 0.4033	900.875	1327.4
318.16 K, x1 = 0.5645	938.874	1370.2
318.16 K, x1 = 0.6971	964.657	1403.3
323.15 K, x1 = 0.4033	895.938	1307.5
323.16 K, x1 = 0.0997	794.775	1212.6
323.16 K, x1 = 0.2019	834.109	1247.3
323.16 K, x1 = 0.2953	865.017	1277.6
323.16 K, x1 = 0.4999	919.805	1335
323.16 K, x1 = 0.5645	934.1	1350.3
323.16 K, x1 = 0.6971	959.996	1383.4
323.16 K, x1 = 0.7909	975.164	1402.4
323.16 K, x1 = 0.8906	991.156	1426.5
323.16 K, x1 = 1	1005.48	1448.9

Source: the NIST ThermoML archive (doi:10.1021/acs.jced.5b00474)
